Measured values as given in ChEMBL document CHEMBL3351245, “Chlorinated polyketide obtained from a Daldinia sp. treated with the epigenetic modifier suberoylanilide hydroxamic acid” (J Nat Prod, 2014).
Activity calls are given as the source filed them. No cut-off for these calls is given here.

Assays:
[1] = Antioxidant activity assessed as DPPH radical scavenging activity incubated for 30 mins; assay type: physicochemical
Klebsiella pneumoniae = assay: Antimicrobial activity against Klebsiella pneumoniae; assay type: functional, organism-based
Staphylococcus aureus = assay: Antimicrobial activity against methicillin-resistant Staphylococcus aureus; assay type: functional, organism-based
MIA PaCa-2 = assay: Cytotoxicity against human MIAPaCa2 cells by MTT assay; assay type: functional, cell-based

Row | SMILES | IC50 [1] | Activity (Klebsiella pneumoniae) | Activity (Staphylococcus aureus) | Activity (MIA PaCa-2)
1 | O=C1c2c3c(cc(O)c2[C@H](O)[C@@H]2O[C@H]12)-c1ccc(O)c2c(O)ccc-3c12 | 3.1 µM | inactive | inactive | inactive
2 | O=C1O[C@H]([C@@H](O)CO)C(O)=C1O [ASCORBIC ACID] | 3.2 µM | – | – | –
3 | O=C1c2c3c(cc(O)c2[C@H](O)[C@H](O)[C@@H]1Cl)-c1ccc(O)c2c(O)ccc-3c12 | 3.6 µM | inactive | inactive | inactive
